Measurements taken from patent US20190134234A1, “COMPOSITION FOR STABILIZING RADIOCHEMICAL PURITY OF [18F] FLUORO-DOPA AND METHOD FOR PREPARING SAME” (CI-CO HEALTHCARE CO., LTD., priority 2015, published 2019).

Columns and labels:
[1] = Radiochemical purity by HPLC after neutralization with sodium bicarbonate, standing at room temperature; format: physicochemical; settings: for radiochemical purity: room temperature; for impurities generated (HPLC chromatogram): pH 7, room temperature, no ethanol
Protocol: [^18F]fluoro-dopa (radiochemical purity 100%) was prepared according to known procedures (see Appl. Radiat. Isot. 672009 1650-1653), the initial hydrogen ion concentration of the prepared [^18F]fluoro-dopa (radiochemical purity 100%) is 4. This was formulated into physiological saline, and hydrogen ion concentration was adjusted to 6, 7, and 8, respectively, using sodium bicarbonate. Each time the solution was allowed to stand at room temperature (or at room temperature) for 0, 2, 4 and 6 hours, high-performance liquid chromatograph (HPLC) was used to measure the radiochemical purity. […]
[^18F]fluoro-dopa (radiochemical purity 100%) was prepared according to known procedures (see: Appl. Radiat. Isot. 67 2009 1650-1653), and the hydrogen ion concentration was adjusted to 7 (pH 7) using sodium bicarbonate after preparation with physiological saline. The determination of whether the radiochemical purity was generated was confirmed by measurement using HPLC (high-performance liquid chromatography) after 2 and 6 hours at room temperature. The results are illustrated in FIGS. 1 and 2. […]

[2] = IASOdopa SPC; cited from earlier work
[3] = Radiochemical purity of [18F]FDG by TLC after pH adjustment, standing at room temperature; format: physicochemical; settings: for radiochemical purity: room temperature
Protocol: [^18F]FDG (radiochemical purity 100%) was prepared according to known procedure (Ind. J. Appl. Radiatl Isot 35 1984 985-986) was formulated with physiological saline and hydrogen ion concentration was adjusted to 6, 7, and 8, respectively, using sodium bicarbonate, and then was allowed to stand at room temperature for 0, 2, 4, and 6 hours.

Cc1cn([C@H]2C[C@H]([18F])[C@@H](CO)O2)c(=O)[nH]c1=O [[^18F]FLT]
radiochemical purity ([1]; pH 6, 0 hour, HPLC): 100% | radiochemical purity ([1]; pH 6, 2 hours, HPLC): 100% | radiochemical purity ([1]; pH 6, 4 hours, HPLC): 99.78% | radiochemical purity ([1]; pH 6, 6 hours, HPLC): 100% | radiochemical purity over time at a neutral pH ([1]; pH 6 to 8, physiological saline, up to 6 hours, HPLC): ≥ 90% | radiochemical purity ([1]; pH 7, 0 hour, HPLC): 100% | radiochemical purity ([1]; pH 7, 2 hours, HPLC): 100% | radiochemical purity ([1]; pH 7, 4 hours, HPLC): 100% | radiochemical purity ([1]; pH 7, 6 hours, HPLC): 100% | radiochemical purity ([1]; pH 8, 0 hour, HPLC): 99.15% | radiochemical purity ([1]; pH 8, 2 hours, HPLC): 100% | radiochemical purity ([1]; pH 8, 4 hours, HPLC): 99.29% | radiochemical purity ([1]; pH 8, 6 hours, HPLC): 100%

N[C@@H](Cc1cc(O)c(O)cc1[18F])C(=O)O [[^18F]fluoro-dopa, L-6-[^18F]FLUORO-3,4-DIHYDROXYPHENYLALANINE]
pH at which it is oxidized [2]: ≥ 4.5 | radiochemical purity ([1]; pH 6, 0 hour, HPLC): 100% | radiochemical purity ([1]; pH 6, 2 hours, HPLC): 96.66% | radiochemical purity ([1]; pH 6, 4 hours, HPLC): 92.6% | radiochemical purity ([1]; pH 6, 6 hours, HPLC): 87.95% | radiochemical purity ([1]; pH 7, 0 hour, HPLC): 100% | radiochemical purity ([1]; pH 7, 2 hours, HPLC): 92.02% | radiochemical purity ([1]; pH 7, 4 hours, HPLC): 78.67% | radiochemical purity ([1]; pH 7, 6 hours, HPLC): 63.81% | impurities generated (HPLC chromatogram) ([1]; 2 hours after neutralization): the first impurity (IMP 1) was generated | impurities generated (HPLC chromatogram) ([1]; 6 hours after neutralization): the first impurity (IMP 1) and the second purity (IMP 2) were generated | radiochemical purity ([1]; pH 8, 0 hour, HPLC): 99.73% | radiochemical purity ([1]; pH 8, 2 hours, HPLC): 91.14% | radiochemical purity ([1]; pH 8, 4 hours, HPLC): 76.58% | radiochemical purity ([1]; pH 8, 6 hours, HPLC): 51.78%

OC[C@H]1OC(O)[C@H]([18F])[C@@H](O)[C@@H]1O (some centres unmarked) [[^18F]FDG]
radiochemical purity ([3]; pH 6, 0 hour): 99.07% | radiochemical purity ([3]; pH 6, 2 hours): 98.04% | radiochemical purity ([3]; pH 6, 4 hours): 98.12% | radiochemical purity ([3]; pH 6, 6 hours): 99.12% | radiochemical purity over time at a neutral pH ([3]; pH 6 to 8, physiological saline, up to 6 hours): ≥ 90% | radiochemical purity ([3]; pH 7, 0 hour): 99.23% | radiochemical purity ([3]; pH 7, 2 hours): 100% | radiochemical purity ([3]; pH 7, 4 hours): 99.46% | radiochemical purity ([3]; pH 7, 6 hours): 98.12% | radiochemical purity ([3]; pH 8, 0 hour): 99.78% | radiochemical purity ([3]; pH 8, 2 hours): 99.01% | radiochemical purity ([3]; pH 8, 4 hours): 99.89% | radiochemical purity ([3]; pH 8, 6 hours): 100%
